The target of test [1] is T1, Ankyrin repeat and protein kinase domain-containing protein 1 (Homo sapiens) (UniProt Q8NFD2).
T1 sequence (whole entry): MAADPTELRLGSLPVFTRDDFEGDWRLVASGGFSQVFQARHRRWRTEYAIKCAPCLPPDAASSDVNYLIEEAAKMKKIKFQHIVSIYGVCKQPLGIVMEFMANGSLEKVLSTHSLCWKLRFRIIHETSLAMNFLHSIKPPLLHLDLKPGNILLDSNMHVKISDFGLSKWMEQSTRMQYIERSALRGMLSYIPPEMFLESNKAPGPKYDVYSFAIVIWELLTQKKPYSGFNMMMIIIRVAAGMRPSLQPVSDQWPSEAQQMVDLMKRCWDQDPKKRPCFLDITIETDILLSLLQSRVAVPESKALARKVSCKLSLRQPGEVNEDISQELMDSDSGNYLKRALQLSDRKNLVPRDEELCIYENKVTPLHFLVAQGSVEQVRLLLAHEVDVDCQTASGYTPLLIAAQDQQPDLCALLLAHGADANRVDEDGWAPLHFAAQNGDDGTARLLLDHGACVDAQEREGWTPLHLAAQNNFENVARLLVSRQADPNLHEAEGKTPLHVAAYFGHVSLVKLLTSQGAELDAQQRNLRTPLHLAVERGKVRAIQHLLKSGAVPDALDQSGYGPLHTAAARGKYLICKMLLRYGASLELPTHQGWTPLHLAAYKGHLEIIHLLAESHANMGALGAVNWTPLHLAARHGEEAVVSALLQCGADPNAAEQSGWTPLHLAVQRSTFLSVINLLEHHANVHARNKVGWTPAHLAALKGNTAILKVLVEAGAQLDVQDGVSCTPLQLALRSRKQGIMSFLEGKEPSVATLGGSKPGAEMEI
The test can be described thus: Selectivity interaction (KinomeScan (DiscoverX)) EUB0000655a ANKK1. The settings on record: at 10 µM.

Test [2] addresses T2, Mitogen-activated protein kinase kinase kinase kinase 2 (Homo sapiens) (UniProt Q12851).
T2 sequence (whole entry): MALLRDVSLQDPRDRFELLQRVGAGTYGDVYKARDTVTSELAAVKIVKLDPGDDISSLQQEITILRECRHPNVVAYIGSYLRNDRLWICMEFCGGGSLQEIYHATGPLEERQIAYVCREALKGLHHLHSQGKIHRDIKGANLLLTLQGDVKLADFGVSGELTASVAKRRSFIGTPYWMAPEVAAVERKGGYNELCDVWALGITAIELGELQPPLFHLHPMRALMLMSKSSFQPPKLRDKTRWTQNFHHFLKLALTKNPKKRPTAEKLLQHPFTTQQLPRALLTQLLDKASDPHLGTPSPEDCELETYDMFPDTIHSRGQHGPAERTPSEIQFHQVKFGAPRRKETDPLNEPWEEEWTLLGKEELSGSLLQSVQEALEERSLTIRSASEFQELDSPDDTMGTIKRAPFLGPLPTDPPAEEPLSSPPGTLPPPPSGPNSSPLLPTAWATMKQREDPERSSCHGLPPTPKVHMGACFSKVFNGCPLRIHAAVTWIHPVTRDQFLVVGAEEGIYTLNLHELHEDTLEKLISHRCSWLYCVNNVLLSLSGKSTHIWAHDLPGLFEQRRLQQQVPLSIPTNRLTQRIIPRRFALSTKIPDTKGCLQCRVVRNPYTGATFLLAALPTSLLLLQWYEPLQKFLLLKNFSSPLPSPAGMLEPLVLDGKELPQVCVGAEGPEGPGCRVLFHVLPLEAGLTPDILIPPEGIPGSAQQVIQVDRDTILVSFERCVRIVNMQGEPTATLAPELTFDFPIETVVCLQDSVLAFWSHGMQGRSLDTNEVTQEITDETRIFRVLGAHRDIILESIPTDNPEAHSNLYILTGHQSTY
The test can be described thus: Selectivity interaction (ActivX KiNativ screen (ex vivo kinase selectivity in human PBMCs)) EUB0001619a MAP4K2. In kind it is cell-based. As to conditions: PBMC, at 1 µM.

Test [3] deals with Calcium/calmodulin-dependent protein kinase type II subunit delta (Homo sapiens) (UniProt Q13557). The test can be described thus: Selectivity interaction (ActivX KiNativ screen (kinase selectivity in THP-1 cell lysates)) EUB0000639a CAMK2D. In kind it is subcellular. The settings on record: lysate.
Chain of Calcium/calmodulin-dependent protein kinase type II subunit delta (Homo sapiens) (Q13557 whole entry): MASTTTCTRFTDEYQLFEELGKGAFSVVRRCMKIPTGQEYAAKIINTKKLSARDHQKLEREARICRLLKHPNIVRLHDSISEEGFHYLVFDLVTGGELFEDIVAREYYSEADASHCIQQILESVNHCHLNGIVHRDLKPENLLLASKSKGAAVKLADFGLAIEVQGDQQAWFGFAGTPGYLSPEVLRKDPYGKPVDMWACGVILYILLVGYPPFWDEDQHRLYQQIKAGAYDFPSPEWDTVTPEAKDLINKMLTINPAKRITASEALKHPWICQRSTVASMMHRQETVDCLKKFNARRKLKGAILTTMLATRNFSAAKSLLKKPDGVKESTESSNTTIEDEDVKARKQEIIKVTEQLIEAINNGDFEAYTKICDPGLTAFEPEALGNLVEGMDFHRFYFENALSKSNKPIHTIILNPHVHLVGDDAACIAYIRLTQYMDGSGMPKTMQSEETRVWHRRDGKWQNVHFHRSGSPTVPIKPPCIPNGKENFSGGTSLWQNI
Test [4] has as its target T3, Serine/threonine-protein kinase tousled-like 1 (Homo sapiens) (UniProt Q9UKI8).
T3 sequence (whole entry): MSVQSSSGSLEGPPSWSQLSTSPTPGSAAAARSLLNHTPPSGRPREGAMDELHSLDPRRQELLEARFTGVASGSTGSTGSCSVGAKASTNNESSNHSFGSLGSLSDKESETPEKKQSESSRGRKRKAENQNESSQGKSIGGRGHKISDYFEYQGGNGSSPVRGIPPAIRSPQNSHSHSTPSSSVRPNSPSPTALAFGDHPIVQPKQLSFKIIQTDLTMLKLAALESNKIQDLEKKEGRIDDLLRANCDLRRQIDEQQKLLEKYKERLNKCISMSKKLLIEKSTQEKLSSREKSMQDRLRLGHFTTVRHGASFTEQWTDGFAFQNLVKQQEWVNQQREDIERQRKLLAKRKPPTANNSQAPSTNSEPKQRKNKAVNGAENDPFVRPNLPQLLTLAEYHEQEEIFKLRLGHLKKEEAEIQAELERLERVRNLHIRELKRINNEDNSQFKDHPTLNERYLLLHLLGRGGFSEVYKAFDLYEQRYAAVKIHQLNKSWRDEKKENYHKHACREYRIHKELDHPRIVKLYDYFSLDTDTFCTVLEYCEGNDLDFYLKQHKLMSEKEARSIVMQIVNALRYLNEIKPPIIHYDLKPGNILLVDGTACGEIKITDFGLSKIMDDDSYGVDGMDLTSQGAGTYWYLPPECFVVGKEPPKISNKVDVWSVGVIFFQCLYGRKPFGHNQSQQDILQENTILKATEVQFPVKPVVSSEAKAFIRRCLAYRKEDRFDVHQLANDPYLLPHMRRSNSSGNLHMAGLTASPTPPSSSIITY
The experiment in a line: Selectivity interaction (ActivX KiNativ screen (kinase selectivity in THP-1 cell lysates)) EUB0000639a TLK1. In kind it is subcellular. The settings on record: lysate, at 1 µM.

For test [5], the system named is Phosphatidylinositol 4,5-bisphosphate 3-kinase catalytic subunit alpha isoform (Homo sapiens), P42336 [E542K]. The experiment in a line: (§1) Selectivity interaction (KinomeScan (DiscoverX)) EUB0000695a PIK3CA. The settings on record: at 100 nM.
The test system of test [6] is Phosphatidylinositol 4,5-bisphosphate 3-kinase catalytic subunit alpha isoform (Homo sapiens), P42336 [E545K]. The test is described as §1. As to conditions: at 100 nM.
Test [7] deals with Phosphatidylinositol 4,5-bisphosphate 3-kinase catalytic subunit alpha isoform (Homo sapiens), P42336 [H1047L]. Described as §1. The settings on record: at 100 nM.
In test [8] the target is Histone-lysine N-methyltransferase 2A (Homo sapiens) (UniProt Q03164). The experiment in a line: Selectivity interaction (Transferase panel (protein, RNA, and DNA methyltransferases. and EP300 (acetyltransferase))) EUB0000270b MLL.
Chain of Histone-lysine N-methyltransferase 2A (Homo sapiens) (Q03164 1-2718 limits assumed): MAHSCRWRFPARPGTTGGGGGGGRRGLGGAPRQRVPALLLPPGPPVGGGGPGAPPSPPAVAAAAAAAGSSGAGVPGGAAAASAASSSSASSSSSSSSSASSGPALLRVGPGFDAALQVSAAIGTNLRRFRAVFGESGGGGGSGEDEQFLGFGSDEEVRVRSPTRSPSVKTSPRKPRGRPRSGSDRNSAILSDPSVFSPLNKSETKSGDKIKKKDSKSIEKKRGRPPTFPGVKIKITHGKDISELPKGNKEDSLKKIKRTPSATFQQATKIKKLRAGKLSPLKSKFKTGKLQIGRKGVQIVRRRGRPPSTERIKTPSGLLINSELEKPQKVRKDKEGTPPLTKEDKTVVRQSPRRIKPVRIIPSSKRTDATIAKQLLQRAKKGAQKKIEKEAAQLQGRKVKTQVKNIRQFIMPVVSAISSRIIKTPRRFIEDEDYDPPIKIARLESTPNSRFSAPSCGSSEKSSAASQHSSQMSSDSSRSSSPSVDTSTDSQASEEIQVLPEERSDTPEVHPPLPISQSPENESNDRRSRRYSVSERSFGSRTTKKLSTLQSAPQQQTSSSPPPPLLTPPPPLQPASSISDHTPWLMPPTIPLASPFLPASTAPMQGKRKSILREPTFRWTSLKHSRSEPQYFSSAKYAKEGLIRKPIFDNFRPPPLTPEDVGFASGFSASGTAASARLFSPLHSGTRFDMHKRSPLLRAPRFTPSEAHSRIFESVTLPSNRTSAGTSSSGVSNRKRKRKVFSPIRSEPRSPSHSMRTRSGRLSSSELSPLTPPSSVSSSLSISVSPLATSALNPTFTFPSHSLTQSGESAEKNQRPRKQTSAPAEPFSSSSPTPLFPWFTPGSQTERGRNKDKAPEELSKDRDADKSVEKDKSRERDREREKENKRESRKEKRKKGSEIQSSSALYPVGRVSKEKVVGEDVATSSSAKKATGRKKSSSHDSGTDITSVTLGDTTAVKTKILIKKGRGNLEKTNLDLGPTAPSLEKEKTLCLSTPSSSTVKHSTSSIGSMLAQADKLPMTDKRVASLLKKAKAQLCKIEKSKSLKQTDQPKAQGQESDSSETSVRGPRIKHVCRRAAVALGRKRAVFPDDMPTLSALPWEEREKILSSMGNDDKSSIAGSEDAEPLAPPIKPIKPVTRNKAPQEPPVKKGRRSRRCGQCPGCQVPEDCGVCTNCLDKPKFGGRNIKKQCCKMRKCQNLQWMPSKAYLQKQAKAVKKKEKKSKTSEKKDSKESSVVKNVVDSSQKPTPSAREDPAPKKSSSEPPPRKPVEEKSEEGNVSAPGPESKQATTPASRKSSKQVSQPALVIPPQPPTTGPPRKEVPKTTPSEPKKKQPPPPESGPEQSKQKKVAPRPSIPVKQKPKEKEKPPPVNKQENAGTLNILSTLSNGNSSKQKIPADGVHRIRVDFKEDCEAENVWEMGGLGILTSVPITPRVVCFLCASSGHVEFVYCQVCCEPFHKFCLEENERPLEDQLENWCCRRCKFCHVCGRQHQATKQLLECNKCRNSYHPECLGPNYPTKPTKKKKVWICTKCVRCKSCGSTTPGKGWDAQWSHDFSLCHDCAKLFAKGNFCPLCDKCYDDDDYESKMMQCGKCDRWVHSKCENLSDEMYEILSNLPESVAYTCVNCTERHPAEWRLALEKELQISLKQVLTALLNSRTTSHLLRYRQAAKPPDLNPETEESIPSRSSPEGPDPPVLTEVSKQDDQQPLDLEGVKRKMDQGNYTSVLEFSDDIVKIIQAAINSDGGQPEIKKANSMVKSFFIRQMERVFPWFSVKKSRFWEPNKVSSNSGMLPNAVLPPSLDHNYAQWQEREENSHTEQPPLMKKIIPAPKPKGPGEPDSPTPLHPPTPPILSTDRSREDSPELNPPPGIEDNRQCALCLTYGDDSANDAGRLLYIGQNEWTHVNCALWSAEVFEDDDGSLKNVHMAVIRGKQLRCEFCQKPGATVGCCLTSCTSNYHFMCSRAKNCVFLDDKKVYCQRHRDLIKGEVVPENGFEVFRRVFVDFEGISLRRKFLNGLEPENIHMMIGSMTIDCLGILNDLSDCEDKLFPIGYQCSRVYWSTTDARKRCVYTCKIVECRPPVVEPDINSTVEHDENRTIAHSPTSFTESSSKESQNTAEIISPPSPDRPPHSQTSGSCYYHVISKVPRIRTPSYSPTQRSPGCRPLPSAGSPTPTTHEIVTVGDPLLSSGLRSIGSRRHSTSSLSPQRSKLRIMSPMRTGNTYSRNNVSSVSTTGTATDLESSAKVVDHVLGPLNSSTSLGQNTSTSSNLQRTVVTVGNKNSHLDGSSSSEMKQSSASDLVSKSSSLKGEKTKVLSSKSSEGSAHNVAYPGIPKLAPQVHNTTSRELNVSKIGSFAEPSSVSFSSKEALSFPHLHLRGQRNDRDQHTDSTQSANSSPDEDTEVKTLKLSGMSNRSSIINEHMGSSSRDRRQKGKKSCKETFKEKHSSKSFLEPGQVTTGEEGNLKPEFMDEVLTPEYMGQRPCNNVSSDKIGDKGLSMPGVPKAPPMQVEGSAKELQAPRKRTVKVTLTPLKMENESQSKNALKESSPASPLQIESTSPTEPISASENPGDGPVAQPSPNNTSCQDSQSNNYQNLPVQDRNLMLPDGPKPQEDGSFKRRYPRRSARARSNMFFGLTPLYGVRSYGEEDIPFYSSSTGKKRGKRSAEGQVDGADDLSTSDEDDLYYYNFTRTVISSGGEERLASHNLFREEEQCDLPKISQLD
Chain of Histone-lysine N-methyltransferase 2A (Homo sapiens) (Q03164 2719-3969 limits assumed): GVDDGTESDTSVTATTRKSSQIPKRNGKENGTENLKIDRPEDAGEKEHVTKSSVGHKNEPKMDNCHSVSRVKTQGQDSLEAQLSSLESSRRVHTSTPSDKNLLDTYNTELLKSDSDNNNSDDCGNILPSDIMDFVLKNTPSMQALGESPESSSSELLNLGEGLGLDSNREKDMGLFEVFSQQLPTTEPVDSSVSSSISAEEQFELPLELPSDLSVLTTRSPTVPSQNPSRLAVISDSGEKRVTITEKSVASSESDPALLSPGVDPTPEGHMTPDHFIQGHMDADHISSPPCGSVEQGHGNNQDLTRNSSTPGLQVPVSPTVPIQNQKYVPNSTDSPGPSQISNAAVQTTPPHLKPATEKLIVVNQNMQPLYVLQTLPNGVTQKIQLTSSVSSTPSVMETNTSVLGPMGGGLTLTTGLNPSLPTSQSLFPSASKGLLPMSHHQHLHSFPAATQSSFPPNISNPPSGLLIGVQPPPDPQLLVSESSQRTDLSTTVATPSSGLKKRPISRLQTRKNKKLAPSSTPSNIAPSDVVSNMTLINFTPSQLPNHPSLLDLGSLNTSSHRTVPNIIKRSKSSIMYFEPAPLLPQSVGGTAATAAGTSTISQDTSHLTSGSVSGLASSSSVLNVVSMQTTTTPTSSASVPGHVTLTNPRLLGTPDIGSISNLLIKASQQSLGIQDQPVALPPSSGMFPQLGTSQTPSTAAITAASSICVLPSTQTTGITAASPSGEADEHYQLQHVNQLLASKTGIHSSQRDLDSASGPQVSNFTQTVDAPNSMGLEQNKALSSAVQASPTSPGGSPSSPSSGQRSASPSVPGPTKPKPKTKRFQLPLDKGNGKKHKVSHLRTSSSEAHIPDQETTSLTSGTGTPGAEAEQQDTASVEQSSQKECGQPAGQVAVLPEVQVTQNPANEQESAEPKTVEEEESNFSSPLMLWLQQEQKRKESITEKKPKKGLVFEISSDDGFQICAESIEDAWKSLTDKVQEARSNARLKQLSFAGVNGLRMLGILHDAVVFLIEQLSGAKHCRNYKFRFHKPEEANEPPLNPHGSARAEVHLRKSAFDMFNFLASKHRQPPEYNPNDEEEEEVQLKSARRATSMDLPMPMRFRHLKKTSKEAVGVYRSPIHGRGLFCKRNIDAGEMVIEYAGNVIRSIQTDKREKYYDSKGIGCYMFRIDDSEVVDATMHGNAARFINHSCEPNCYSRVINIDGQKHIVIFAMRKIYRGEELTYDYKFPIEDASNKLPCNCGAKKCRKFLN
For test [9], the target named is Substance-P receptor (Homo sapiens) (UniProt P25103). The test can be described thus: Selectivity interaction (Panel of kinases, GPCRs, ion channels and transporters (enzymatic assay)) EUB0000223bCl TACR1.
Chain of Substance-P receptor (Homo sapiens) (P25103 whole entry): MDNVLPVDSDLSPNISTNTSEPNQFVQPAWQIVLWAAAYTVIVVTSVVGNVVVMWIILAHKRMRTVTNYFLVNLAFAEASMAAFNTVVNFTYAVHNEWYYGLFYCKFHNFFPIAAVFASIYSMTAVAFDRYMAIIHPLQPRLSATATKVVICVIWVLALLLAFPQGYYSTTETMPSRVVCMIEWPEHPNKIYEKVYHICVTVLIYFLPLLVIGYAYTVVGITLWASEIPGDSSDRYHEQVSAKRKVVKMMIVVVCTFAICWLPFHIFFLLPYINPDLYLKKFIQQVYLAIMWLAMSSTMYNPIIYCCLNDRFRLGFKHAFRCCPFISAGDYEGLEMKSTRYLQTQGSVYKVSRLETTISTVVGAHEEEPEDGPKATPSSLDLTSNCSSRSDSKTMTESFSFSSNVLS

This note sets out measurements from ChEMBL document CHEMBL5465560, “Selectivity Literature for EUbOPEN Chemogenomic Library” (2024).

For `CN(C)CCOc1ccc(-c2nc(-c3ccncc3)c(-c3ccc4c(c3)CC/C4=N\O)[nH]2)cc1`, the % of control in test [1] came out at 100%.
In test [2], `N#Cc1cccc(-c2c[nH]c3ncnc(N4CCOCC4)c23)c1` came in with a % of inhibition of 31%.
In the case of `CC[C@@H]1[C@H](F)C(=O)N[C@@H]1COc1nccc2cc(C(N)=O)c(OC)cc12` [ZIMLOVISERTIB], the % of inhibition came out at 14.2% in test [3] (at 0.01 µM); 9.6% in test [3] (at 0.04 µM); 16.3% in test [3] (at 0.2 µM); 36.4% in test [3] (at 1 µM); 61.2% in test [3] (at 5 µM); 34.3% in test [4].
For the molecule `Cc1cc(F)c(C(=O)Nc2cccc(-c3nncn3C(C)C)n2)cc1-n1cnc(C2CC2)c1`, the % of control in test [5] was 100%; in test [6], 99%; in [7] it was 100%.
For the molecule `Cc1cc(CN)cc(C)c1-c1ncn(C)c1-c1cncn1C`, the % activity in test [8] (at 1 µM) was above 90%; in test [8] (at 10 µM), above 80%.
As to `COc1cc(C(=O)N2CC[C@@H](O)[C@@H](N)C2)cc2nc(-c3cc4ccccc4n3CC3CC3)n(C)c12`, the pXC50 in [9] is below 4.4 M.
